Earlier results, collected in patent publication US20080279948A1, “Treatment of Asthma and Copd Using Triple-Combination Therapy” (NXP B.V., priority 2005, published 2008).

Assays:
[1] = controlled release formulation for pulmonary delivery
[2] = aerosol formulation, single administration of a metered dose, asthma

C[N+]1(C)CCC(OC(=O)C(O)(c2ccccc2)C2CCCC2)C1.[Br-] (racemic) [glycopyrrolate, 3-[(Cyclopentyl-hydroxyphenylacetyl)oxy]-1,1-dimethylpyrrolidinium bromide]
period over which the antimuscarinic agent exerts its pharmacological effect [1]: greater than 12 hours | duration of bronchodilation [2]: up to 12 hours
